Experimental data as given in patent US10221426B2, “Constitutively active PYR/PYL receptor proteins for improving plant stress tolerance” (The Regents of the University of California, priority 2009, dated 2019).

Target: T1, HAB1 in the presence of PYR1 (Arabidopsis thaliana, UniProt O49686)
T1 construct: made in house; host or cells: E. coli BL21[DE3]pLysS
T1 sequence (O49686 1-191): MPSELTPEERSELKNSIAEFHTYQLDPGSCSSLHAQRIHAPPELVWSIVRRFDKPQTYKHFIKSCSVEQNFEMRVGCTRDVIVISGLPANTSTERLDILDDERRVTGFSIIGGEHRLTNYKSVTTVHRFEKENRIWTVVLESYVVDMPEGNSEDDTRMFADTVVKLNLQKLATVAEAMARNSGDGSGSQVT
T1 sequence (Q9CAJ0 23-511 partner): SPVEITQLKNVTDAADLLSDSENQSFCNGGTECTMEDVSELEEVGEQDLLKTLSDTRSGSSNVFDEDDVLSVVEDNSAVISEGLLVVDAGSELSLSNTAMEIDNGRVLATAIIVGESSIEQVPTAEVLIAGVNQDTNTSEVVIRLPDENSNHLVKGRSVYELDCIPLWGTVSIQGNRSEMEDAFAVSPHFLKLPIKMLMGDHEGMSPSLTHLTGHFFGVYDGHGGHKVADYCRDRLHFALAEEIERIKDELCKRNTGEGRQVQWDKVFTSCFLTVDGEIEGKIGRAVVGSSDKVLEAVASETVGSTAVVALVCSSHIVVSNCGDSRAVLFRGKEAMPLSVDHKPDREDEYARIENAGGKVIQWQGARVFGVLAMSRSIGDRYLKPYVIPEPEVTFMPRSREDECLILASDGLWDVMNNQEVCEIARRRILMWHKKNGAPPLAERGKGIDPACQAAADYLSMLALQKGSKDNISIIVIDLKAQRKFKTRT
Test: PP2C phosphatase assay (pNPP), GST-HAB1 in the presence of PYR1
Assay type: biochemical
Conditions: 1 μM GST-HAB1, 1.5 μM 6×His-PYR1, 50 mM pNPP; read-out: IC50 of inhibition of HAB1 phosphatase activity in the presence of PYR1
Description: Since ABI1 and relatives are negative regulators of the ABA signaling pathway, we hypothesized that the function of the ABA-promoted PYR1-PP2C interaction was to inhibit phosphatase activity and remove a negative input into the pathway, which would then promote signaling. To test this hypothesis, we examined the effects of (+)-ABA on PP2C enzyme kinetics using recombinant GST-HAB1, 6×His-PYR1 or 6×His-PYR1^P88S using the phosphatase substrate pNPP. The ORF of Arabidopsis HAB1 was amplified by PCR from a pUni clone obtained from the ABRC and cloned into pGex-2T to create a GST-HAB1 fusion protein. Both constructs were transformed into BL21[DE3]pLysS. For expression, cells harboring pGex-GST-HAB1 were grown overnight in 20 ml LB and then inoculated to 700 ml media containing 1 mM MnCl2 and continued incubation with shaking at RT for 8 hr. Protein expression was then induced by addition of IPTG to final concentration of 0.5 mM, and cells were cultured overnight at RT. […] Immediately after mixing, reactions were monitored for hydrolysis of pNPP at A405 t˜10 second intervals over 20 minutes using a Wallac plate reader. Reaction progressions were plotted, initial velocities calculated and converted to specific activities using a standard curve for 4-nitrophenol made in the same buffer system volumes/plate reader used for enzymatic reaction measurements. […]

CC1=CC(=O)CC(C)(C)C1(O)/C=C/C(C)=C\C(=O)O (single isomer, unassigned; (+)) [(+)-ABA]
IC50: 180 nM
